Literature values, collected in US9902985B2 (priority 2012, dated 2018).
Where two headings read alike, the source gives them in different places.

How the values were obtained:
Gram-positive organisms = conditions: fold more potent than vancomycin

C=C(C/C=C(\C)CCC=C(C)C)CCC(C)(C)/C=C/CC/C(C)=C/CO[C@@H](COP(=O)(O)O[C@H]1O[C@H](C(N)=O)[C@@](C)(O)[C@H](OC(N)=O)[C@H]1O[C@@H]1O[C@H](CO[C@@H]2O[C@H](CO)[C@@H](O)[C@H](O)[C@H]2O)[C@@H](O[C@@H]2O[C@H](C)[C@@H](O[C@@H]3O[C@H](C(=O)NC4=C(O)CCC4=O)[C@H](O)[C@H](O)[C@H]3O)[C@H](O)[C@H]2NC(C)=O)[C@H](O)[C@H]1NC(C)=O)C(=O)O [Moenomycin A]
potency relative to vancomycin (Gram-positive organisms): a thousand times more potent
potency relative to vancomycin (Gram-positive organisms; listed as moenomycin): 10-1000 times
absorption upon oral administration: relatively poor
